Read-outs that look alike come from different tables or passages of the source. Numbered stars: 1 amine (or outer) side, 2 acyl side, 3 side chain; on linkers, the order of the positions; unused ones are H or OH. Bridge positions count the residues as written; N and C are the ends. Square brackets hold non-standard residues; d marks the D form. Peptide text beside a SMILES is read from it. * marks the point of attachment. C20 diacid = O=C(O)CCCCCCCCCCCCCCCCCCC(=O)*; γGlu = O=C(O)[C@H](CCC(=O)[*:2])N[*:1]; Palmitoyl = CCCCCCCCCCCCCCCC(=O)*; NMeI = CC[C@H](C)[C@H](NC)C(=O)O; NMeA = CN[C@@H](C)C(=O)O; Sar = CNCC(=O)O
Assays:
[1] = Solubility assessment (turbidity absorbance at 325 nm); type: physicochemical; details: stock 2 mg/ml diluted 1:1, ambient temperature (typically 25°C), n=1; for Solubility, Acetate buffer pH 4: 100 mM acetate buffer pH 4.0; for Solubility, Acetate buffer pH 5: 100 mM acetate buffer pH 5.0; for Solubility, Histidine buffer pH 6: 100 mM histidine buffer pH 6.0; for Solubility, Histidine buffer pH 7: 100 mM histidine buffer pH 7.0; for Solubility, Phosphate buffer pH 6: 100 mM phosphate buffer pH 6.0; for Solubility, Phosphate buffer pH 7: 100 mM phosphate buffer pH 7.0; for Solubility, Phosphate buffer pH 7.5: 100 mM phosphate buffer pH7.5
Procedure, shortened: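 Peptide stock (2 mg/ml, water pH 2.5) diluted 1:1 into 100 mM acetate (pH 4.0, 5.0), histidine (pH 6.0, 7.0) or phosphate (pH 6.0–7.5) buffer; absorbance at 325 nm read at about 25°C, n=1. A325 ≤ 0.02 taken as solubility ≥ 1 mg/ml.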

[2] = molecular target: T1, human calcitonin receptor (hCTR2) (Homo sapiens, UniProt P30988); assay: hCTR2 assay: induction of cAMP (AlphaScreen cAMP Assay kit) in COS7 cells expressing hCTR2; type: cell-based
T1 construct: expressed in transfected cells
T1 sequence (P30988 25-474): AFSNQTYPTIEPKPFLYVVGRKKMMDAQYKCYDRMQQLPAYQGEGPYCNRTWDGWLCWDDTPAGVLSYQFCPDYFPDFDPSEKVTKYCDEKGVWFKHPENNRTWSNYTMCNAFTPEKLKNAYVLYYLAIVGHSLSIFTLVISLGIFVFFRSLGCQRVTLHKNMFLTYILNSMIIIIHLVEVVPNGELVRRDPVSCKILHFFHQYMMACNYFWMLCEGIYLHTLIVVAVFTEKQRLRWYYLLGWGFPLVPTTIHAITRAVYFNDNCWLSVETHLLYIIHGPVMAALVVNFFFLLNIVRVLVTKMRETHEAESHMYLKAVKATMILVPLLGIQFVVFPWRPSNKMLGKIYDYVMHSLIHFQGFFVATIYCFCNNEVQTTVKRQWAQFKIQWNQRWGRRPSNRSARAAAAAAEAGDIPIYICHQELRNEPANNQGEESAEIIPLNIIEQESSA
Procedure, shortened: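 Stable RAMP-naive COS7 clone expressing hCTR2 was stimulated with increasing peptide concentrations in Tyrode buffer (pH 7.4) with 100 µM IBMX and 0.1% casein for 15 min at 37° C. Cells were lysed and cAMP measured by AlphaScreen. EC50 and efficacy relative to pramlintide came from 4PL curve fits.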

[3] = cAMP induction in COS7 cells expressing hCTR2, average of a minimum of 3 determinations, read-out: hCTR2 EC50

Structure (SMILES) | Solubility, Acetate buffer pH 4 [1] | Solubility, Acetate buffer pH 5 [1] | Solubility, Histidine buffer pH 6 [1] | Solubility, Histidine buffer pH 7 [1] | Solubility, Phosphate buffer pH 6 [1] | Solubility, Phosphate buffer pH 7 [1] | Solubility, Phosphate buffer pH 7.5 [1] | EC50 [2] | EC50 [2, 3]
CCCCCCCCCCCCCCCC(=O)N[C@@H](CCC(=O)N[C@@H](CCCNC(=N)N)C(=O)N[C@H]1CSSC[C@@H](C(=O)N[C@@H](C)C(=O)N[C@H](C(=O)N[C@@H](CCC(N)=O)C(=O)N[C@@H](CCCNC(=N)N)C(=O)N[C@@H](CC(C)C)C(=O)N[C@@H](C)C(=O)N[C@@H](CCC(=O)O)C(=O)N[C@@H](Cc2ccccc2)C(=O)N[C@@H](CC(C)C)C(=O)N[C@@H](Cc2c[nH]cn2)C(=O)N[C@@H](CCCNC(=N)N)C(=O)N[C@@H](CO)C(=O)N[C@@H](CO)C(=O)N[C@@H](CC(N)=O)C(=O)N[C@@H](CC(N)=O)C(=O)N[C@@H](Cc2ccccc2)C(=O)N(C)CC(=O)N[C@@H](C)C(=O)N(C)[C@H](C(=O)N[C@@H](CC(C)C)C(=O)N[C@@H](CO)C(=O)N[C@@H](CO)C(=O)N[C@H](C(=O)N[C@@H](CC(N)=O)C(=O)N[C@H](C(=O)NCC(=O)N[C@@H](CO)C(=O)N[C@@H](CC(N)=O)C(=O)N[C@H](C(=O)N2CCC[C@H]2C(N)=O)[C@@H](C)O)C(C)C)[C@@H](C)O)[C@@H](C)CC)[C@@H](C)O)NC(=O)[C@H]([C@@H](C)O)NC(=O)[C@H](C)NC(=O)[C@H]([C@@H](C)O)NC(=O)[C@H](CC(N)=O)NC1=O)C(=O)O [Compound 92, [Hexadecanoyl]-isoGlu-RC()NTATC()ATQRLAEFLHRSSNNF-Gly(Me)-A-Ile(Me)-LSSTNVGSNTP-NH2] ({Palmitoyl-γGlu}-RCNTATCATQRLAEFLHRSSNNF[Sar]A[NMeI]LSSTNVGSNTP-NH2; disulfide 2-7) | SS (SS indicates solubility ≥ 1mg/ml) | SS (SS indicates solubility ≥ 1mg/ml) | SS (SS indicates solubility ≥ 1mg/ml) | SS (SS indicates solubility ≥ 1mg/ml) | SS (SS indicates solubility ≥ 1mg/ml) | SS (SS indicates solubility ≥ 1mg/ml) | SS (SS indicates solubility ≥ 1mg/ml) | 0.054 nM | –
CC[C@H](C)[C@@H](C(=O)N[C@@H](CC(C)C)C(=O)N[C@@H](CO)C(=O)N[C@@H](CO)C(=O)N[C@H](C(=O)N[C@@H](CC(N)=O)C(=O)N[C@H](C(=O)NCC(=O)N[C@@H](CO)C(=O)N[C@@H](Cc1c[nH]cn1)C(=O)N[C@H](C(=O)N[C@@H](Cc1ccc(O)cc1)C(N)=O)[C@@H](C)O)C(C)C)[C@@H](C)O)N(C)C(=O)CN(C)C(=O)[C@H](Cc1ccccc1)NC(=O)[C@H](CC(N)=O)NC(=O)[C@H](CC(N)=O)NC(=O)[C@H](CO)NC(=O)[C@H](CO)NC(=O)[C@H](Cc1c[nH]cn1)NC(=O)[C@H](Cc1c[nH]cn1)NC(=O)[C@H](CC(C)C)NC(=O)[C@H](Cc1ccccc1)NC(=O)[C@H](CCC(=O)O)NC(=O)[C@H](C)NC(=O)[C@H](CC(C)C)NC(=O)[C@H](CCCNC(=N)N)NC(=O)[C@H](CCC(N)=O)NC(=O)[C@@H](NC(=O)[C@H](C)NC(=O)[C@@H]1CSSC[C@H](NC(=O)[C@H](CCCCN)NC(=O)CC[C@H](NC(=O)CCCCCCCCCCCCCCCCCCC(=O)O)C(=O)O)C(=O)N[C@@H](CC(N)=O)C(=O)N[C@@H]([C@@H](C)O)C(=O)N[C@@H](C)C(=O)N[C@@H]([C@@H](C)O)C(=O)N1)[C@@H](C)O [Compound 4, [19CD]-isoGlu-KC()NTATC()ATQRLAEFLHHSSNNF-Gly(Me)-Ile(Me)-LSSTNVGSHTY-NH2] ({C20 diacid-γGlu}-KCNTATCATQRLAEFLHHSSNNF[Sar][NMeI]LSSTNVGSHTY-NH2; disulfide 2-7) | II (II indicates solubility ≤ 1 mg/ml) | SS (SS indicates solubility ≥ 1mg/ml) | II (II indicates solubility ≤ 1 mg/ml) | II (II indicates solubility ≤ 1 mg/ml) | II (II indicates solubility ≤ 1 mg/ml) | II (II indicates solubility ≤ 1 mg/ml) | II (II indicates solubility ≤ 1 mg/ml) | – | 1.3 nM
CC[C@H](C)[C@@H](C(=O)N[C@@H](CC(C)C)C(=O)N[C@@H](CO)C(=O)N[C@@H](CO)C(=O)N[C@H](C(=O)N[C@@H](CC(N)=O)C(=O)N[C@H](C(=O)NCC(=O)N[C@@H](CO)C(=O)N[C@@H](CC(N)=O)C(=O)N[C@H](C(=O)N1CCC[C@H]1C(N)=O)[C@@H](C)O)C(C)C)[C@@H](C)O)N(C)C(=O)[C@H](C)NC(=O)[C@H](C)N(C)C(=O)[C@H](Cc1ccccc1)NC(=O)[C@H](CC(N)=O)NC(=O)[C@H](CC(N)=O)NC(=O)[C@H](CO)NC(=O)[C@H](CO)NC(=O)[C@H](Cc1c[nH]cn1)NC(=O)[C@H](Cc1c[nH]cn1)NC(=O)[C@H](CC(C)C)NC(=O)[C@H](Cc1ccccc1)NC(=O)[C@H](CCC(=O)O)NC(=O)[C@H](C)NC(=O)[C@H](CC(C)C)NC(=O)[C@H](CCCNC(=N)N)NC(=O)[C@H](CCC(N)=O)NC(=O)[C@@H](NC(=O)[C@H](C)NC(=O)[C@@H]1CSSC[C@H](NC(=O)[C@H](CCCNC(=N)N)NC(=O)CC[C@H](NC(=O)CCCCCCCCCCCCCCCCCCC(=O)O)C(=O)O)C(=O)N[C@@H](CC(N)=O)C(=O)N[C@@H]([C@@H](C)O)C(=O)N[C@@H](C)C(=O)N[C@@H]([C@@H](C)O)C(=O)N1)[C@@H](C)O [Compound 56, [19CD]-isoGlu-RC()NTATC()ATQRLAEFLHHSSNNF-Ala(Me)-A-Ile(Me)-LSSTNVGSNTP-NH2] ({C20 diacid-γGlu}-RCNTATCATQRLAEFLHHSSNNF[NMeA]A[NMeI]LSSTNVGSNTP-NH2; disulfide 2-7) | SS (SS indicates solubility ≥ 1mg/ml) | II (II indicates solubility ≤ 1 mg/ml) | II (II indicates solubility ≤ 1 mg/ml) | II (II indicates solubility ≤ 1 mg/ml) | II (II indicates solubility ≤ 1 mg/ml) | II (II indicates solubility ≤ 1 mg/ml) | II (II indicates solubility ≤ 1 mg/ml) | – | 0.14 nM
